Results taken from patent US8211662B2, “Nitroreductase enzymatic substrates” (Biomerieux, priority 2007, dated 2012).

Assays:
[1] = tested on: Bacillus subtilis NCTC 9372; assay: Nitroreductase detection on Columbia agar, colonies read under UV; type: cell-based; parameters: key: − = no fluorescence detected; +/− = weak fluorescence; + = medium fluorescence; ++ = strong fluorescence; conditions: 100 mg/l in Columbia agar, 24 h 37° C., UV 360-365 nm
Procedure: (§1) A mass of 40 mg of each substrate was dissolved in 4 ml of dimethylformamide (DMF). This solution was entirely taken up in 400 ml of Columbia agar autoclaved beforehand and kept molten at 50° C. The final concentration for each substrate was 100 mg/l.
(§2) Each of the media was distributed into Petri dishes 90 mm in diameter, in a proportion of 20 ml per dish.
(§3) 18 microorganism strains derived from collections and belonging to various species of bacteria and of yeasts were inoculated onto these media by semi-quantitative isolation of 10 μl of a suspension at 0.5 McFarland diluted to 1/20. The media were incubated for 24 hours at 37° C., then the colonies formed were examined visually under UV illumination at 360-365 nm.

[2] = tested on: Candida albicans ATCC 90028; assay: as above; type: cell-based; parameters: key: − = no fluorescence detected; +/− = weak fluorescence; + = medium fluorescence; ++ = strong fluorescence; conditions: 100 mg/l in Columbia agar, 24 h 37° C., UV 360-365 nm
Procedure: as §1, §2, §3

[3] = tested on: Enterobacter cloacae NCTC 11936; assay: as above; type: cell-based; parameters: key: − = no fluorescence detected; +/− = weak fluorescence; + = medium fluorescence; ++ = strong fluorescence; conditions: 100 mg/l in Columbia agar, 24 h 37° C., UV 360-365 nm
Procedure: as §1, §2, §3

[4] = tested on: Enterococcus faecalis NCTC 775; assay: as above; type: cell-based; parameters: key: − = no fluorescence detected; +/− = weak fluorescence; + = medium fluorescence; ++ = strong fluorescence; conditions: 100 mg/l in Columbia agar, 24 h 37° C., UV 360-365 nm
Procedure: as §1, §2, §3

[5] = tested on: Escherichia coli NCTC 10418; assay: as above; type: cell-based; parameters: key: − = no fluorescence detected; +/− = weak fluorescence; + = medium fluorescence; ++ = strong fluorescence; conditions: 100 mg/l in Columbia agar, 24 h 37° C., UV 360-365 nm
Procedure: as §1, §2, §3

[6] = tested on: Listeria monocytogenes NCTC 11994; assay: as above; type: cell-based; parameters: key: − = no fluorescence detected; +/− = weak fluorescence; + = medium fluorescence; ++ = strong fluorescence; conditions: 100 mg/l in Columbia agar, 24 h 37° C., UV 360-365 nm
Procedure: as §1, §2, §3

[7] = tested on: Pseudomonas aeruginosa NCTC 10662; assay: as above; type: cell-based; parameters: key: − = no fluorescence detected; +/− = weak fluorescence; + = medium fluorescence; ++ = strong fluorescence; conditions: 100 mg/l in Columbia agar, 24 h 37° C., UV 360-365 nm
Procedure: as §1, §2, §3

[8] = tested on: Serratia marcescens NCTC 10211; assay: as above; type: cell-based; parameters: key: − = no fluorescence detected; +/− = weak fluorescence; + = medium fluorescence; ++ = strong fluorescence; conditions: 100 mg/l in Columbia agar, 24 h 37° C., UV 360-365 nm
Procedure: as §1, §2, §3

[9] = tested on: Staphylococcus aureus NCTC 6571; assay: as above; type: cell-based; parameters: key: − = no fluorescence detected; +/− = weak fluorescence; + = medium fluorescence; ++ = strong fluorescence; conditions: 100 mg/l in Columbia agar, 24 h 37° C., UV 360-365 nm
Procedure: as §1, §2, §3

[10] = tested on: Staphylococcus epidermidis NCTC 11047; assay: as above; type: cell-based; parameters: key: − = no fluorescence detected; +/− = weak fluorescence; + = medium fluorescence; ++ = strong fluorescence; conditions: 100 mg/l in Columbia agar, 24 h 37° C., UV 360-365 nm
Procedure: as §1, §2, §3

[11] = tested on: Streptococcus pyogenes NCTC 8306; assay: as above; type: cell-based; parameters: key: − = no fluorescence detected; +/− = weak fluorescence; + = medium fluorescence; ++ = strong fluorescence; conditions: 100 mg/l in Columbia agar, 24 h 37° C., UV 360-365 nm
Procedure: as §1, §2, §3

[12] = tested on: Yersinia enterocolitica NCTC 11176; assay: as above; type: cell-based; parameters: key: − = no fluorescence detected; +/− = weak fluorescence; + = medium fluorescence; ++ = strong fluorescence; conditions: 100 mg/l in Columbia agar, 24 h 37° C., UV 360-365 nm
Procedure: as §1, §2, §3

[13] = tested on: Acinetobacter baumanii ATCC 19606; assay: as above; type: cell-based; parameters: key to Intensity of fluorescence, Acinetobacter baumanii ATCC 19606 / Intensity of the fluorescence, Acinetobacter baumanii ATCC 19606: − = no fluorescence detected; +/− = weak fluorescence; + = medium fluorescence; ++ = strong fluorescence
Procedure: as §1, §2, §3

[14] = tested on: Salmonella typhimurium NCTC 74; assay: as above; type: cell-based; parameters: key to Intensity of fluorescence, Salmonella typhimurium NCTC 74 / F: fluorescence (intensity), Salmonella typhimurium NCTC 74 / Intensity of the fluorescence, Salmonella typhimurium NCTC 74: − = no fluorescence detected; +/− = weak fluorescence; + = medium fluorescence; ++ = strong fluorescence
Procedure: as §1, §2, §3

[15] = tested on: Morganella morganii 462403 (wild); assay: as above; type: cell-based; parameters: key to Intensity of fluorescence, Morganella morganii 462403 / F: fluorescence (intensity), Morganella morganii 462403 (wild) / Intensity of the fluorescence, Morganella morganii 462403 (wild): − = no fluorescence detected; +/− = weak fluorescence; + = medium fluorescence; ++ = strong fluorescence; conditions: 100 mg/l in Columbia agar, 24 h 37° C., UV 360-365 nm
Procedure: as §1, §2, §3

MRSA NCTC 11939 = assay: as above; type: cell-based, Staphylococcus aureus; parameters: key: − = no fluorescence detected; +/− = weak fluorescence; + = medium fluorescence; ++ = strong fluorescence; conditions: 100 mg/l in Columbia agar, 24 h 37° C., UV 360-365 nm
Procedure: as §1, §2, §3

[16] = tested on: Candida glabrata NCPF 3943; assay: as above; type: cell-based; parameters: key to Intensity of fluorescence, Candida glabrata NCPF3943 / F: fluorescence (intensity), Candida glabrata NCPF 3943 / Intensity of the fluorescence, Candida glabrata NCPF 3943: − = no fluorescence detected; +/− = weak fluorescence; + = medium fluorescence; ++ = strong fluorescence; conditions: 100 mg/l in Columbia agar, 24 h 37° C., UV 360-365 nm
Procedure: as §1, §2, §3

[17] = tested on: S. aureus (including MRSA) 10 strains; assay: Detection of various strains of S. aureus in the presence of substrates; type: cell-based, Staphylococcus aureus; conditions: for No. of strains detected, S. aureus (including MRSA): 10 strains
S. epidermidis 2 strains = assay: as above; type: cell-based
Procedure: as §1, §2
18 microorganism strains derived from collections and belonging to various species of bacteria and of yeasts were inoculated onto these media by semi-quantitative isolation of 10 μl of a suspension at 0.5 McFarland diluted to 1/20. […]

Staph spp 12 strains = assay: as above; type: cell-based
Enterococcus 6 strains = assay: as above; type: cell-based
[18] = 100 mg/l in Columbia agar, 24 h 37° C., UV 360-365 nm

O=[N+]([O-])c1ccc(F)cc1-c1nc2ccccc2o1 [Substrate 7]
Intensity of fluorescence, Bacillus subtilis NCTC 9372 [1]: − | Intensity of fluorescence, Candida albicans ATCC 90028 [2]: − | Intensity of fluorescence, Enterobacter cloacae NCTC 11936 [3]: ++ | Intensity of fluorescence, Enterococcus faecalis NCTC 775 [4]: − | Intensity of fluorescence, Escherichia coli NCTC 10418 [5]: ++ | Intensity of fluorescence, Listeria monocytogenes NCTC 11994 [6]: − | Intensity of fluorescence, Pseudomonas aeruginosa NCTC 10662 [7]: − | Intensity of fluorescence, Serratia marcescens NCTC 10211 [8]: ++ | Intensity of fluorescence, Staphylococcus aureus NCTC 6571 [9]: ++ | Intensity of fluorescence, Staphylococcus epidermidis NCTC 11047 [10]: − | Intensity of fluorescence, Streptococcus pyogenes NCTC 8306 [11]: − | Intensity of fluorescence, Yersinia enterocolitica NCTC 11176 [12]: − | Intensity of fluorescence, Acinetobacter baumanii ATCC 19606 [13, 18]: + | Distinguishing Pseudomonas aeruginosa from Acinetobacter baumanii ([13]; table 2): make it possible to distinguish Pseudomonas aeruginosa from Acinetobacter baumanii | Intensity of fluorescence, Salmonella typhimurium NCTC 74 [14, 18]: ++ | Salmonella typhimurium result with the substrate ([14]; table 2): strongly positive | Intensity of fluorescence, Morganella morganii 462403 [15]: ++ | Intensity of fluorescence, Staphylococcus aureus NCTC 11939 (MRSA NCTC 11939): ++ | Intensity of fluorescence, Candida glabrata NCPF3943 [16]: − | Distinguishing or identifying Staphylococcus aureus strains, in particular MRSA, from most of the other Gram-positive bacterial strains [17]: make it possible to distinguish or identify the Staphylococcus aureus strains | No. of strains detected, S. aureus (including MRSA) ([17]; 24 h): 10 | No. of strains detected, S. aureus (including MRSA) ([17]; 48 h): 10 | No. of strains detected, S. epidermidis (S. epidermidis 2 strains; 24 h): 0 | No. of strains detected, S. epidermidis (S. epidermidis 2 strains; 48 h): 2 | No. of strains detected, Staph spp (Staph spp 12 strains; 24 h): 12 | No. of strains detected, Staph spp (Staph spp 12 strains; 48 h): 12 | No. of strains detected, Enterococcus (Enterococcus 6 strains; 24 h): 0 | No. of strains detected, Enterococcus (Enterococcus 6 strains; 48 h): 1
